Assay results reported in US11981658B2, “Substituted aminopyridine compounds as EGFR inhibitors” (YUHAN CORPORATION, priority 2021, dated 2024).
Where two headings read alike, the source gives them in different places.

Experiments:
[1] = target: EGFR Del19/T790M/C797S (Homo sapiens, UniProt P00533, C797S/DEL746-750/T790M); assay: Biochemical EGFR kinase inhibition assay (Lance Ultra TR-FRET), triple mutant del19/T790M/C797S
Description: (§1) Biochemical EGFR kinase assays were conducted using Lance Ultra time-resolved fluorescence resonance energy transfer (TR-FRET) technology from Perkin-Elmer. Compounds of the invention were initially diluted to 20 mM in 100% DMSO for storage and made into kinase buffer solution to create a compound concentration ranging from 0.003 μM and 10 μM.
(§2) Each kinase reactions were incubated at room temperature for 1 hour and then stopped by the addition of 4 μL of stop solution (10 mM EDTA). The specific Europium-labeled-anti-phosphopeptide antibody (PerkinElmer, AD0069) diluted in LANCE detection buffer was then added to a final concentration of 2 nM. After 60 minutes incubation at room temperature the LANCE signal was measured on an EnVision Multilabel Reader (Perkin-Elmer). Excitation wavelength was set at 320 nm and emission monitored at 615 nm (donor) and 665 nm (acceptor). The IC50 values were determined using GraphPad prism software (GraphPad Software, Inc., San Diego, CA, USA).

[2] = target: EGFR L858R/T790M/C797S (Homo sapiens, UniProt P00533, C797S/L858R/T790M); assay: Biochemical EGFR kinase inhibition assay (Lance Ultra TR-FRET), triple mutant L858R/T790M/C797S
Sequence of EGFR L858R/T790M/C797S (P00533 25-1210 T790M/C797S/L858R): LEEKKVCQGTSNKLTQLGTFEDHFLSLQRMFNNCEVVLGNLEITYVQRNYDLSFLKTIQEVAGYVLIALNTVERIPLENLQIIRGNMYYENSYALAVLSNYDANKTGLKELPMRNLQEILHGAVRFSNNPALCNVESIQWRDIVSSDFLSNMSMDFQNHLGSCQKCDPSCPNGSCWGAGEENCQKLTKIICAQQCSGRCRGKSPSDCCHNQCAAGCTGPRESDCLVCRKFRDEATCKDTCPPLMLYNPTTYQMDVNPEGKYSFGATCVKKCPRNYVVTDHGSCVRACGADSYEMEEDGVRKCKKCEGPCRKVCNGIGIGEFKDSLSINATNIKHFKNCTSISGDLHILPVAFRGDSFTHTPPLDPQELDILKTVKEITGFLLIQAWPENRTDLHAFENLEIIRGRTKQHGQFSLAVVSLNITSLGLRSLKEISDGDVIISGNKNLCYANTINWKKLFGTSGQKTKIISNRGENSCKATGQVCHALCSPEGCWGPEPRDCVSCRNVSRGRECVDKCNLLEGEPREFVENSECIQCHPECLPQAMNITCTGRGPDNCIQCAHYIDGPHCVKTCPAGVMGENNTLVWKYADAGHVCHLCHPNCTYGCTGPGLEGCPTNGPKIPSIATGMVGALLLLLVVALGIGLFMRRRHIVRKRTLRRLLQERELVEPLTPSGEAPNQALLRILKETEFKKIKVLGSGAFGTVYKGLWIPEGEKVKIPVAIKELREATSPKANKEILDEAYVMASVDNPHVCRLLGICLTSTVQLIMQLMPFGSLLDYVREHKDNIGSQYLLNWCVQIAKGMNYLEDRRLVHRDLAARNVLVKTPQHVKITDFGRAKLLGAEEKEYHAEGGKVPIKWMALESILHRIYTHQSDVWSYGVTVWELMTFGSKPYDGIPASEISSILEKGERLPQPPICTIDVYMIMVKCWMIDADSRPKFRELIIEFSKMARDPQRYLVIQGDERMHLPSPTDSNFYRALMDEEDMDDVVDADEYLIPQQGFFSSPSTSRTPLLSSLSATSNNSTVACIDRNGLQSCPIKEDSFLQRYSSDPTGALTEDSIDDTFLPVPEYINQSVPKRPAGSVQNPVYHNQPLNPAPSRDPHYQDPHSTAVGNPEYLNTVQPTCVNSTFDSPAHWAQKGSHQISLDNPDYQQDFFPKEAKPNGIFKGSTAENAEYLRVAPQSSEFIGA
Description: as §1, §2

[3] = target: EGFR Del19/C797S (Homo sapiens, UniProt P00533, C797S/DEL746-750); assay: Biochemical EGFR kinase inhibition assay (Lance Ultra TR-FRET), double mutant del19/C797S
Sequence of EGFR Del19/C797S (P00533 with tags, fused parts or gaps DEL746-750/C797S): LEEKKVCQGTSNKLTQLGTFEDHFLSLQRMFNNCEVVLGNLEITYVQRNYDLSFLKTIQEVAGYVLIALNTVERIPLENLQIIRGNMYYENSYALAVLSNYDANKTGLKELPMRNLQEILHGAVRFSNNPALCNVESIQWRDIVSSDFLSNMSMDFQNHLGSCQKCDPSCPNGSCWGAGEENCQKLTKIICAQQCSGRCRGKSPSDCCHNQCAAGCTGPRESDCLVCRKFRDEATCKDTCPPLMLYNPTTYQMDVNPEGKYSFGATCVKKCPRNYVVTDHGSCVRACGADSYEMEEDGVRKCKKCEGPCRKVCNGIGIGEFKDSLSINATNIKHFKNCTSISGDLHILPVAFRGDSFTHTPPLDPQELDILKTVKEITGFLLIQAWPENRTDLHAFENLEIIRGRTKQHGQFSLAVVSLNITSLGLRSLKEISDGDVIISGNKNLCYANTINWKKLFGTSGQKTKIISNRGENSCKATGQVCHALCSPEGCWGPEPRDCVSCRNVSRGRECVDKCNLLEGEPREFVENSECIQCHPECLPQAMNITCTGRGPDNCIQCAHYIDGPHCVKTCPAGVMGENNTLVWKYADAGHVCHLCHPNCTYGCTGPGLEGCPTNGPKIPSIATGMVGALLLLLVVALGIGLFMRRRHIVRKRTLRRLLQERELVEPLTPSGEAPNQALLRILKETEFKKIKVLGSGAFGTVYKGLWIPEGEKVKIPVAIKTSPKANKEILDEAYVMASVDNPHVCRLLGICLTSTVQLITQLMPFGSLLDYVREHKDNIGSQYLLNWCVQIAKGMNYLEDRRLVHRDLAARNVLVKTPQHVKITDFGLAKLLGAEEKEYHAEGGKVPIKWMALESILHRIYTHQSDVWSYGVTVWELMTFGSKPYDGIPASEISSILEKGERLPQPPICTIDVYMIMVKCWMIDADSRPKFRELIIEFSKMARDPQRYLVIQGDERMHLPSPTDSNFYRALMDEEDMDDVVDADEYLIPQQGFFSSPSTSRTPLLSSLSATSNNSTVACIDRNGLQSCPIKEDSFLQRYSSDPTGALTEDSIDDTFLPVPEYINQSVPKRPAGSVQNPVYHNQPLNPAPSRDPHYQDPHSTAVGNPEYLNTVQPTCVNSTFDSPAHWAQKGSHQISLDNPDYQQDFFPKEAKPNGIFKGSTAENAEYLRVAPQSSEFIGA
Description: as §1, §2

[4] = target: EGFR L858R/C797S (Homo sapiens, UniProt P00533, C797S/L858R); assay: Biochemical EGFR kinase inhibition assay (Lance Ultra TR-FRET), double mutant L858R/C797S
Sequence of EGFR L858R/C797S (P00533 25-1210 C797S/L858R): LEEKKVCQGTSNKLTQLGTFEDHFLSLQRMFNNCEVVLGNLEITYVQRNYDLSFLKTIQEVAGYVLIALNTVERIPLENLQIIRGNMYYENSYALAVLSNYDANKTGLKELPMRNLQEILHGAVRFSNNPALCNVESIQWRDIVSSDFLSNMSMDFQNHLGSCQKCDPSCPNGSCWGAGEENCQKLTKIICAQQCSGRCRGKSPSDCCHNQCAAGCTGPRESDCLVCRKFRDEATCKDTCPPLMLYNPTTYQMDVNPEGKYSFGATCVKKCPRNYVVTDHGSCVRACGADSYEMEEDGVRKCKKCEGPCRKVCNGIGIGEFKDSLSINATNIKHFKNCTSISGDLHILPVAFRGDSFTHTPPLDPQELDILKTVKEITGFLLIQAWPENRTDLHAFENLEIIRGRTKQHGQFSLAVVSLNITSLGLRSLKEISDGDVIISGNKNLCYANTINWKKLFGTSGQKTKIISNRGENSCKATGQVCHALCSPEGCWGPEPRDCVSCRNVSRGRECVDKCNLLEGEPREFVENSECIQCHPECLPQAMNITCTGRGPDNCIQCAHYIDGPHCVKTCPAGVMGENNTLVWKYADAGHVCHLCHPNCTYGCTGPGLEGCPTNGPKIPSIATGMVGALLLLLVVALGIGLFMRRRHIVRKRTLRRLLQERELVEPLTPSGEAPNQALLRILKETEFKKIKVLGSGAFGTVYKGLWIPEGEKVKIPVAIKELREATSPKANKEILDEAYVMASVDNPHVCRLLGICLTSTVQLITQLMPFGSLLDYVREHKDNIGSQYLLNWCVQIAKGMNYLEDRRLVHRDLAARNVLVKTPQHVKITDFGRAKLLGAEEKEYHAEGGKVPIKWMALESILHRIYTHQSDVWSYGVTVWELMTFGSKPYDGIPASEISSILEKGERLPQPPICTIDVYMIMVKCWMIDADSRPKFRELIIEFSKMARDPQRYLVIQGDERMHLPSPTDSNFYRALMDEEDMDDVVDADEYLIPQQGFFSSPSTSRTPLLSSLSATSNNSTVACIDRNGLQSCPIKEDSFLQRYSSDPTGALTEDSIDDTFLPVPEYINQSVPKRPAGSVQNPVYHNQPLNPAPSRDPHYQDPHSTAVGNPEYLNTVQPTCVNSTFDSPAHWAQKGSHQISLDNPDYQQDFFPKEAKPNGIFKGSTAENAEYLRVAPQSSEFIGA
Description: as §1, §2

[5] = target: EGFR wildtype (WT) (Homo sapiens, UniProt P00533); assay: Biochemical EGFR kinase inhibition assay (Lance Ultra TR-FRET), wildtype
Description: as §1, §2

[6] = Km ATP, read-out: IC50 Del19/T790M/C797S (nM) Km ATP
[7] = Km ATP, read-out: IC50 L858R/T790M/C797S (nM) Km ATP
[8] = Km ATP, read-out: IC50 Del19/C797S (nM) Km ATP
[9] = Km ATP, read-out: IC50 L858R/C797S (nM) Km ATP
[10] = Km ATP, read-out: IC50 WT (nM) Km ATP
[11] = IC50 Del19/T790M/C797S (nM), 100 μM ATP
[12] = IC50 L858R/T790M/C797S (nM), 100 μM ATP
[13] = IC50 Del19/C797S (nM), 100 μM ATP
[14] = IC50 L858R/C797S (nM), 100 μM ATP
[15] = ATP at Km, read-out: IC50 Del19/T790M/C797S (nM), Km ATP
[16] = ATP at Km, read-out: IC50 Del19/C797S (nM), Km ATP
[17] = ATP at Km, read-out: IC50 WT (nM), Km ATP

Sequence of EGFR Del19/T790M/C797S (P00533 with tags, fused parts or gaps DEL746-750/T790M/C797S): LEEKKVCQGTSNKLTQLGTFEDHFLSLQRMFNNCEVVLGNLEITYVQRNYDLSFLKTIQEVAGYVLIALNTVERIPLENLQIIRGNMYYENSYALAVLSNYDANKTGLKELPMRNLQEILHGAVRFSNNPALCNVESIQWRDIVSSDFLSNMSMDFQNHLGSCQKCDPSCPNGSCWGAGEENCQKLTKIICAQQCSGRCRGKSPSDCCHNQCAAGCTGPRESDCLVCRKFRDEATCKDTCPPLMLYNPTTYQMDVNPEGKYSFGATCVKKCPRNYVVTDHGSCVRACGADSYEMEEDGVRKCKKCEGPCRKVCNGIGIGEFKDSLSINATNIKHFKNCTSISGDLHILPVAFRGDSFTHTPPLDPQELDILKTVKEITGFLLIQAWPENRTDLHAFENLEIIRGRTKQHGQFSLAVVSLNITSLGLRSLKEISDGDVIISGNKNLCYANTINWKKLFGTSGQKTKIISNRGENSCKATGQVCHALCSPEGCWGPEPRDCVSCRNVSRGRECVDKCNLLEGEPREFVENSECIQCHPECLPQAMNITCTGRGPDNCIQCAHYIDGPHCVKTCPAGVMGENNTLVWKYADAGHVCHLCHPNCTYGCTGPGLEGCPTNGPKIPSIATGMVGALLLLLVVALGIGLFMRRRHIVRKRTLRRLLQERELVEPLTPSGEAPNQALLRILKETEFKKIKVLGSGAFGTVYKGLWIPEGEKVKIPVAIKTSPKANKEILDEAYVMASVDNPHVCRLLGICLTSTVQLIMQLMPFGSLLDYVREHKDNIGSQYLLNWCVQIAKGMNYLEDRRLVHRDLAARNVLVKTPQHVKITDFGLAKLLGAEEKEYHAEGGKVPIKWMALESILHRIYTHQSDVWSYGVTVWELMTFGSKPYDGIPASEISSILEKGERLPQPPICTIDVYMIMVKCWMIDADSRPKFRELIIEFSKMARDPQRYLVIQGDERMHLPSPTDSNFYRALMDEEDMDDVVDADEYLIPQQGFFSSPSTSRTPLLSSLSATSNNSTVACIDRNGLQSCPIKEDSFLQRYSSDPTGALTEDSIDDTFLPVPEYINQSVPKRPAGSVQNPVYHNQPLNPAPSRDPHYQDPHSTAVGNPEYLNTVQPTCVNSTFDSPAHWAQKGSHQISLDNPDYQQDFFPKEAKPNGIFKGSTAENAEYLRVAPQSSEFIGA

SMILES	IC50 [1, 6]	IC50 [2, 7]	IC50 [3, 8]	IC50 [5, 10]	IC50 [1, 11]	IC50 [2, 12]	IC50 [3, 13]	IC50 [4, 14]	IC50 ([5]; IC50 WT (nM), 100 μM ATP)	other results
CN1CCN(c2cc(Nc3ccnc(-c4cnn(S(=O)(=O)C5CC5)c4)n3)ncc2C#Cc2cnn(C)c2)CC1 [Example 1, 2-(1-(Cyclopropylsulfonyl)-1H-pyrazol-4-yl)-N-(5-((1-methyl-1H-pyrazol-4-yl)ethynyl)-4-(4-methylpiperazin-1-yl)pyridin-2-yl)pyrimidin-4-amine]	1.3 nM	5.4 nM	71.3 nM	230 nM	–	–	–	–	–	IC50 [4, 9]: 34.6 nM
Cn1cc(C#Cc2cnc(Nc3ccnc(-c4cnn(S(=O)(=O)C5CC5)c4)n3)cc2NC2CCCCC2)cn1 [Example 2, N^4-Cyclohexyl-N^2-(2-(1-(cyclopropylsulfonyl)-1H-pyrazol-4-yl)pyrimidin-4-yl)-5-((1-methyl-1H-pyrazol-4-yl)ethynyl)pyridine-2,4-diamine]	5.7 nM	11.2 nM	112 nM	881 nM	–	–	–	–	–	IC50 [4, 9]: 143 nM
C[C@H](CCO)Nc1cc(Nc2ccnc(-c3cnn(S(=O)(=O)C4CC4)c3)n2)ncc1C#Cc1cnn(C)c1 [Example 4, (R)-3-((2-((2-(1-(Cyclopropylsulfonyl)-1H-pyrazol-4-yl)pyrimidin-4-yl)amino)-5-((1-methyl-1H-pyrazol-4-yl)ethynyl)pyridin-4-yl)amino)butan-1-ol]	–	–	–	–	1.1 nM	12.6 nM	38.6 nM	103 nM	> 10000 nM	–
C[C@H](Nc1cc(Nc2ccnc(-c3cnn(S(=O)(=O)C4CC4)c3)n2)ncc1C#Cc1cnn(C)c1)C(C)(C)O [Example 5, (S)-3-((2-((2-(1-(Cyclopropylsulfonyl)-1H-pyrazol-4-yl)pyrimidin-4-yl)amino)-5-((1-methyl-1H-pyrazol-4-yl)ethynyl)pyridin-4-yl)amino)-2-methylbutan-2-ol]	–	–	–	–	3.8 nM	44.3 nM	404 nM	418 nM	> 10000 nM	–
Cn1cc(C#Cc2cnc(Nc3ccnc(-c4cnn(S(=O)(=O)C5CC5)c4)n3)cc2N2CCCC(O)C2)cn1 (stereo not drawn) [Example 6, 1-(2-((2-(1-(Cyclopropylsulfonyl)-1H-pyrazol-4-yl)pyrimidin-4-yl)amino)-5-((1-methyl-1H-pyrazol-4-yl)ethynyl)pyridin-4-yl)piperidin-3-ol]	–	–	–	–	0.5 nM	4.2 nM	5.1 nM	24.1 nM	6020 nM	–
Cn1cc(C#Cc2cnc(Nc3ccnc(-c4cnn(S(=O)(=O)C5CC5)c4)n3)cc2N2CCC(=O)CC2)cn1 [Example 7, 1-(2-((2-(1-(Cyclopropylsulfonyl)-1H-pyrazol-4-yl)pyrimidin-4-yl)amino)-5-((1-methyl-1H-pyrazol-4-yl)ethynyl)pyridin-4-yl)piperidin-4-one]	–	–	–	–	4.5 nM	5 nM	24.2 nM	143 nM	> 10000 nM	–
Cn1cc(C#Cc2cnc(Nc3ccnc(-c4cnn(S(=O)(=O)C5CC5)c4)n3)cc2N2CCC(F)CC2)cn1 [Example 8, 2-(1-(Cyclopropylsulfonyl)-1H-pyrazol-4-yl)-N-(4-(4-fluoropiperidin-1-yl)-5-((1-methyl-1H-pyrazol-4-yl)ethynyl)pyridin-2-yl)pyrimidin-4-amine]	–	–	–	–	3.1 nM	2.2 nM	9.5 nM	33.2 nM	> 10000 nM	–
Cc1nc(C#Cc2cnc(Nc3ccnc(-c4cnn(S(=O)(=O)C5CC5)c4)n3)cc2NC(C)C)cs1 [Example 199, N^2-(2-(1-(Cyclopropylsulfonyl)-1H-pyrazol-4-yl)pyrimidin-4-yl)-N^4-isopropyl-5-((2-methylthiazol-4-yl)ethynyl)pyridine-2,4-diamine]	–	–	–	–	–	–	–	–	–	IC50 [1, 15]: 5.7 nM; IC50 ([2]; ATP at Km, read-out: IC50 L858R/T790M/C797S (nM), Km ATP): 3.4 nM; IC50 [3, 16]: 82 nM; IC50 ([4]; ATP at Km, read-out: IC50 L858R/C797S (nM), Km ATP): 414 nM
CC(C)Nc1cc(Nc2ccnc(-c3cnn(S(=O)(=O)C4CC4)c3)n2)ncc1C#Cc1csc(CF)n1 [Example 200, N^2-(2-(1-(cyclopropylsulfonyl)-1H-pyrazol-4-yl)pyrimidin-4-yl)-5-((2-(fluoromethyl)thiazol-4-yl)ethynyl)-N^4-isopropylpyridine-2,4-diamine]	–	–	–	–	11.3 nM	29.8 nM	1000 nM	–	> 10000 nM	IC50 [1, 15]: 12.6 nM; IC50 [3, 16]: 350 nM; IC50 [5, 17]: 4100 nM
CC(C)Nc1cc(Nc2ccnc(-c3cnn(S(=O)(=O)C4CC4)c3)n2)ncc1C#CCCCNC(=O)N1CCOCC1 [Example 207, N-(5-(6-((2-(1-(Cyclopropylsulfonyl)-1H-pyrazol-4-yl)pyrimidin-4-yl)amino)-4-(isopropylamino)pyridin-3-yl)pent-4-yn-1-yl)morpholine-4-carboxamide]	–	–	–	–	2.9 nM	–	76.4 nM	120 nM	> 10000 nM	IC50 [1, 15]: 2.1 nM; IC50 [3, 16]: 29.1 nM; IC50 [5, 17]: 56 nM
CC(C)Nc1cc(Nc2ccnc(-c3cnn(S(=O)(=O)C4CC4)c3)n2)ncc1C#CCCCC(=O)N1CCOCC1 [Example 208, 6-(6-((2-(1-(Cyclopropylsulfonyl)-1H-pyrazol-4-yl)pyrimidin-4-yl)amino)-4-(isopropylamino)pyridin-3-yl)-1-morpholinohex-5-yn-1-one]	–	–	–	–	3.5 nM	8.1 nM	120 nM	–	> 10000 nM	IC50 [1, 15]: 5.1 nM; IC50 [3, 16]: 56 nM; IC50 [5, 17]: 107 nM
CC(C)Nc1cc(Nc2ccnc(-c3cnn(S(=O)(=O)C4CC4)c3)n2)ncc1C#CCCCCC(=O)N1CCOCC1 [Example 210, 7-(6-((2-(1-(Cyclopropylsulfonyl)-1H-pyrazol-4-yl)pyrimidin-4-yl)amino)-4-(isopropylamino)pyridin-3-yl)-1-morpholinohept-6-yn-1-one]	–	–	–	–	3.4 nM	–	143 nM	157 nM	> 10000 nM	–
Cc1nc(C#Cc2cnc(Nc3ccnc(-c4cnn(S(=O)(=O)C5CC5)c4)n3)cc2N[C@H]2CC[C@H](O)C2)cs1 [Example 222, (1 S,3S)-3-((2-((2-(1-(Cyclopropylsulfonyl)-1H-pyrazol-4-yl)pyrimidin-4-yl)amino)-5-((2-methylthiazol-4-yl)ethynyl)pyridin-4-yl)amino)cyclopentan-1-ol]	–	–	–	–	5.2 nM	12.2 nM	197 nM	–	> 10000 nM	–
Cn1cc(C#Cc2cnc(Nc3ccnc(-c4cnn(S(=O)(=O)C5CC5)c4)n3)cc2-c2cnn(C)c2)cn1 [Example 233, 2-(1-(Cyclopropylsulfonyl)-1H-pyrazol-4-yl)-N-(4-(1-methyl-1H-pyrazol-4-yl)-5-((1-methyl-1H-pyrazol-4-yl)ethynyl)pyridin-2-yl)pyrimidin-4-amine]	4.5 nM	15.5 nM	299 nM	1340 nM	–	–	–	–	–	–
Cn1cc(-c2cc(Nc3ccnc(-c4cnn(S(=O)(=O)C5CC5)c4)n3)ncc2C#Cc2cnn(CCF)c2)cn1 [Example 234, 2-(1-(Cyclopropylsulfonyl)-1H-pyrazol-4-yl)-N-(5-((1-(2-fluoroethyl)-1H-pyrazol-4-yl)ethynyl)-4-(1-methyl-1H-pyrazol-4-yl)pyridin-2-yl)pyrimidin-4-amine]	4.1 nM	16.1 nM	214 nM	1010 nM	–	–	–	–	–	–
Cn1cc(C#Cc2cnc(Nc3ccnc(-c4cnn(S(=O)(=O)C5CC5)c4)n3)cc2-c2cnn(C3CC3)c2)cn1 [Example 235, N-(4-(1-Cyclopropyl-1H-pyrazol-4-yl)-5-((1-methyl-1H-pyrazol-4-yl)ethynyl)pyridin-2-yl)-2-(1-(cyclopropylsulfonyl)-1H-pyrazol-4-yl)pyrimidin-4-amine]	4.7 nM	13.2 nM	311 nM	2220 nM	–	–	–	–	–	–
O=S(=O)(C1CC1)n1cc(-c2nccc(Nc3cc(-c4cnn(C5CC5)c4)c(C#Cc4cnn(CCF)c4)cn3)n2)cn1 [Example 237, N-(4-(1-Cyclopropyl-1H-pyrazol-4-yl)-5-((1-(2-fluoroethyl)-1H-pyrazol-4-yl)ethynyl)pyridin-2-yl)-2-(1-(cyclopropylsulfonyl)-1H-pyrazol-4-yl)pyrimidin-4-amine]	5.5 nM	16.5 nM	232 nM	2720 nM	–	–	–	–	–	–
